Converted amounts (≈) assume the structure as drawn. Like-named read-outs stand apart in the source and are kept apart here.
Tests used:
Format in all cases: cell-based
A. fumigatus ATCC204305 = assay: Antifungal activity test, MIC by broth microdilution (CLSI M38-A2); details: A. fumigatus ATCC204305, 35° C., 24-48 hours
Experimental: (§1) The Minimum Inhibitory Concentration (MIC) values of the present compound against yeast and filamentous fungi were determined by broth microdilution assay according to the Clinical Laboratory Standards Institute (CLSI) guidelines outlined in documents M27-A3 and M38-A2. The medium used in the assay consisted of RPMI1640 (with glutamine, without bicarbonate) with 2% glucose and 0.165 mol/L morpholinepropanesulfonic acid (MOPS) with pH adjusted to 7.0 using 1 mol/L sodium hydroxide. The present compound was dissolved in dimethyl sulfoxide (DMSO). A series of two-fold dilutions were prepared in DMSO, and then 2 μL of the diluted compound was added to each well in 96-well sterile plates. Each inoculum was prepared by diluting a suspension of Candida spp. or a conidia suspension of Aspergillus spp. suspended in sterile saline solution, and then 200 μL was added to each well to a predetermined concentration using RPMI/MOPS (final concentration for each solution: approximately 1×10^3 cells/mL and approximately 1×10^4 CFU/mL). Plates of Candida spp. and Aspergillus spp. were incubated at 35° C. for 24-48 hours. The MIC was defined as the lowest concentration giving 100% inhibition compared to the growth control.

A. flavus ATCC204304 = assay: as above; details: A. flavus ATCC204304, 35° C., 24-48 hours
Experimental: as §1

[1] = tested on: red blood cells (5% RBC suspension); assay: Test Example 2-1: in vitro hemolytic activity test (upper limit 50, 80, 100 or 200 μmol/L); details: 5% RBC suspension, 37° C., one hour, read-out: hemolysis IC50
Method in brief: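 A 5% suspension of washed red cells in Earle's medium was exposed to doubling dilutions of compound from DMSO, with maxima of 50, 80, 100 or 200 μmol/L final, for 1 h at 37 °C, 5% CO2. Supernatant absorbance at 540 nm was normalised to water-lysed cells. IC50 is the concentration giving 50% hemolysis; ">" values exceed the top concentration.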

C. albicans ATCC90028 = assay: Antifungal activity test, MIC by broth microdilution (CLSI M27-A3); details: C. albicans ATCC90028, 35° C., 24-48 hours
Experimental: as §1

[2] = Aspergillus fumigatus, broth microdilution, 100% inhibition, read-out: MIC
[3] = Aspergillus flavus, broth microdilution, 100% inhibition, read-out: MIC
[4] = Candida albicans, broth microdilution, 100% inhibition, read-out: MIC
[5] = broth microdilution, 100% inhibition
[6] = hemolysis method 50 (upper concentration 50 μmol/L)
[7] = lowest concentration giving 100% inhibition

| Structure (SMILES) | MIC (A. fumigatus ATCC204305; [5]) | MIC (A. flavus ATCC204304; [5]) | MIC (C. albicans ATCC90028; [5]) | further results |
| --- | --- | --- | --- | --- |
| C[C@@H]1[C@H](O)[C@@H](C)/C=C/C=C/C=C/C=C/C=C/C=C/C=C/[C@H](O[C@@H]2O[C@H](C)[C@@H](O)[C@H](N)[C@@H]2O)C[C@@H]2O[C@](O)(C[C@@H](O)C[C@@H](O)[C@H](O)CC[C@@H](O)C[C@@H](O)CC(=O)O[C@H]1C)C[C@H](O)[C@H]2NC(=O)NC(CO)CO [I-40] |  |  |  | MIC (A. fumigatus ATCC204305; [2]): 0.25 µg/mL (≈ 0.247 µM); MIC (A. flavus ATCC204304; [3]): 0.5 µg/mL (≈ 0.494 µM); IC50 ([1]; Erythrocyte, 1 h, hemolysis method 80 (upper concentration 80 μmol/L)): > 80 µM; MIC (C. albicans ATCC90028; [4]): 0.125 µg/mL (≈ 0.123 µM) |
| C[C@@H]1[C@H](O)[C@@H](C)/C=C/C=C/C=C/C=C/C=C/C=C/C=C/[C@H](O[C@@H]2O[C@H](C)[C@@H](O)[C@H](N)[C@@H]2O)C[C@@H]2O[C@](O)(C[C@@H](O)C[C@@H](O)[C@H](O)CC[C@@H](O)C[C@@H](O)CC(=O)O[C@H]1C)C[C@H](O)[C@H]2NC(=O)NC[C@H](O)C(=O)O [I-259] | 1 µg/mL (≈ 0.974 µM) | 0.5 µg/mL (≈ 0.487 µM) | 0.5 µg/mL (≈ 0.487 µM) | IC50 [1, 6]: > 50 µM |
| C[C@@H]1[C@H](O)[C@@H](C)/C=C/C=C/C=C/C=C/C=C/C=C/C=C/[C@H](O[C@@H]2O[C@H](C)[C@@H](O)[C@H](N)[C@@H]2O)C[C@@H]2O[C@](O)(C[C@@H](O)C[C@@H](O)[C@H](O)CC[C@@H](O)C[C@@H](O)CC(=O)O[C@H]1C)C[C@H](O)[C@H]2NC(=O)NC[C@H](O)CC(=O)O [I-250] | 1 µg/mL (≈ 0.961 µM) | 0.5 µg/mL (≈ 0.481 µM) | 0.5 µg/mL (≈ 0.481 µM) | IC50 [1, 6]: > 50 µM |
| C[C@@H]1[C@H](O)[C@@H](C)/C=C/C=C/C=C/C=C/C=C/C=C/C=C/[C@H](O[C@@H]2O[C@H](C)[C@@H](O)[C@H](N)[C@@H]2O)C[C@@H]2O[C@](O)(C[C@@H](O)C[C@@H](O)[C@H](O)CC[C@@H](O)C[C@@H](O)CC(=O)O[C@H]1C)C[C@H](O)[C@H]2NC(=O)NCCNC(=N)N [I-67] | 1 µg/mL (≈ 0.977 µM) | 1 µg/mL (≈ 0.977 µM) | 0.25 µg/mL (≈ 0.244 µM) |  |
| C[C@@H]1[C@H](O)[C@@H](C)/C=C/C=C/C=C/C=C/C=C/C=C/C=C/[C@H](O[C@@H]2O[C@H](C)[C@@H](O)[C@H](NC(=N)N)[C@@H]2O)C[C@@H]2O[C@](O)(C[C@@H](O)C[C@@H](O)[C@H](O)CC[C@@H](O)C[C@@H](O)CC(=O)O[C@H]1C)C[C@H](O)[C@H]2NC(=O)NNC(=O)[C@H](O)CO [I-367] |  |  |  | MIC (A. fumigatus ATCC204305; Aspergillus fumigatus, lowest concentration giving 100% inhibition, read-out: MIC): 1 µg/mL (≈ 0.923 µM); MIC (A. flavus ATCC204304; Aspergillus flavus, lowest concentration giving 100% inhibition, read-out: MIC): 0.5 µg/mL (≈ 0.462 µM); MIC (C. albicans ATCC90028; Candida albicans, lowest concentration giving 100% inhibition, read-out: MIC): 0.25 µg/mL (≈ 0.231 µM) |
| C[C@@H]1[C@H](O)[C@@H](C)/C=C/C=C/C=C/C=C/C=C/C=C/C=C/[C@H](O[C@@H]2O[C@H](C)[C@@H](O)[C@H](NC(=O)CN(C)C)[C@@H]2O)C[C@@H]2O[C@](O)(C[C@@H](O)C[C@@H](O)[C@H](O)CC[C@@H](O)C[C@@H](O)CC(=O)O[C@H]1C)C[C@H](O)[C@H]2NC(=O)NNC(N)=O [I-326] |  |  |  | MIC (A. fumigatus ATCC204305; [7]): 1 µg/mL (≈ 0.925 µM); MIC (A. flavus ATCC204304; [7]): 1 µg/mL (≈ 0.925 µM); MIC (C. albicans ATCC90028; [7]): 0.25 µg/mL (≈ 0.231 µM) |
| C[C@@H]1[C@H](O)[C@@H](C)/C=C/C=C/C=C/C=C/C=C/C=C/C=C/[C@H](O[C@@H]2O[C@H](C)[C@@H](O)[C@H](N)[C@@H]2O)C[C@@H]2O[C@](O)(C[C@@H](O)C[C@@H](O)[C@H](O)CC[C@@H](O)C[C@@H](O)CC(=O)O[C@H]1C)C[C@H](O)[C@H]2NC(=O)N1C[C@@H](O)[C@H](O)C1 [I-260] |  |  |  | MIC (A. fumigatus ATCC204305; [2]): 1 µg/mL (≈ 0.976 µM); MIC (A. flavus ATCC204304; [3]): 0.5 µg/mL (≈ 0.488 µM); MIC (C. albicans ATCC90028; [4]): 0.5 µg/mL (≈ 0.488 µM) |
| C[C@@H]1[C@H](O)[C@@H](C)/C=C/C=C/C=C/C=C/C=C/C=C/C=C/[C@H](O[C@@H]2O[C@H](C)[C@@H](O)[C@H](N)[C@@H]2O)C[C@@H]2O[C@](O)(C[C@@H](O)C[C@@H](O)[C@H](O)CC[C@@H](O)C[C@@H](O)CC(=O)O[C@H]1C)C[C@H](O)[C@H]2NC(=O)NCC(=O)NCC#N [I-157] | 1 µg/mL (≈ 0.967 µM) | 0.5 µg/mL (≈ 0.483 µM) | 0.5 µg/mL (≈ 0.483 µM) |  |
| C[C@@H]1[C@H](O)[C@@H](C)/C=C/C=C/C=C/C=C/C=C/C=C/C=C/[C@H](O[C@@H]2O[C@H](C)[C@@H](O)[C@H](N)[C@@H]2O)C[C@@H]2O[C@](O)(C[C@@H](O)C[C@@H](O)[C@H](O)CC[C@@H](O)C[C@@H](O)CC(=O)O[C@H]1C)C[C@H](O)[C@H]2NC(=O)NCC(=O)NC(CO)CO [I-155] | 1 µg/mL (≈ 0.935 µM) | 0.5 µg/mL (≈ 0.468 µM) | 0.5 µg/mL (≈ 0.468 µM) |  |
| C[C@@H]1[C@H](O)[C@@H](C)/C=C/C=C/C=C/C=C/C=C/C=C/C=C/[C@H](O[C@@H]2O[C@H](C)[C@@H](O)[C@H](N)[C@@H]2O)C[C@@H]2O[C@](O)(C[C@@H](O)C[C@@H](O)[C@H](O)CC[C@@H](O)C[C@@H](O)CC(=O)O[C@H]1C)C[C@H](O)[C@H]2NC(=O)NCC1(C(=O)O)CC1 [I-202] | 1 µg/mL (≈ 0.965 µM) | 0.5 µg/mL (≈ 0.483 µM) | 0.5 µg/mL (≈ 0.483 µM) |  |
| C[C@@H]1[C@H](O)[C@@H](C)/C=C/C=C/C=C/C=C/C=C/C=C/C=C/[C@H](O[C@@H]2O[C@H](C)[C@@H](O)[C@H](N)[C@@H]2O)C[C@@H]2O[C@](O)(C[C@@H](O)C[C@@H](O)[C@H](O)CC[C@@H](O)C[C@@H](O)CC(=O)O[C@H]1C)C[C@H](O)[C@H]2NC(=O)NCC1CN(CCO)C1 [I-158] | 1 µg/mL (≈ 0.951 µM) | 1 µg/mL (≈ 0.951 µM) | 0.25 µg/mL (≈ 0.238 µM) |  |
| CONC(=O)N[C@H]1[C@@H]2C[C@@H](O[C@@H]3O[C@H](C)[C@@H](O)[C@H](N)[C@@H]3O)/C=C/C=C/C=C/C=C/C=C/C=C/C=C/[C@H](C)[C@@H](O)[C@@H](C)[C@H](C)OC(=O)C[C@H](O)C[C@H](O)CC[C@@H](O)[C@H](O)C[C@H](O)C[C@](O)(C[C@@H]1O)O2 [I-59] |  |  |  | MIC (A. fumigatus ATCC204305; [2]): 1 µg/mL (≈ 1.03 µM); MIC (A. flavus ATCC204304; [3]): 1 µg/mL (≈ 1.03 µM); MIC (C. albicans ATCC90028; [4]): 0.25 µg/mL (≈ 0.258 µM) |
| C[C@@H]1[C@H](O)[C@@H](C)/C=C/C=C/C=C/C=C/C=C/C=C/C=C/[C@H](O[C@@H]2O[C@H](C)[C@@H](O)[C@H](N)[C@@H]2O)C[C@@H]2O[C@](O)(C[C@@H](O)C[C@@H](O)[C@H](O)CC[C@@H](O)C[C@@H](O)CC(=O)O[C@H]1C)C[C@H](O)[C@H]2NC(=O)NCC1(CO)COC1 [I-193] | 1 µg/mL (≈ 0.963 µM) | 0.5 µg/mL (≈ 0.482 µM) | 0.25 µg/mL (≈ 0.241 µM) |  |

Now from value to compound, other results behind:

| MIC (A. fumigatus ATCC204305; [5]) | MIC (A. flavus ATCC204304; [5]) | MIC (C. albicans ATCC90028; [5]) | Structure (SMILES) | further results |
| --- | --- | --- | --- | --- |
| 1 µg/mL (≈ 0.978 µM) | 0.5 µg/mL (≈ 0.489 µM) | 0.5 µg/mL (≈ 0.489 µM) | C[C@@H]1[C@H](O)[C@@H](C)/C=C/C=C/C=C/C=C/C=C/C=C/C=C/[C@H](O[C@@H]2O[C@H](C)[C@@H](O)[C@H](N)[C@@H]2O)C[C@@H]2O[C@](O)(C[C@@H](O)C[C@@H](O)[C@H](O)CC[C@@H](O)C[C@@H](O)CC(=O)O[C@H]1C)C[C@H](O)[C@H]2NC(=O)N1CCC1C(=O)O (some centres unmarked) [I-284] | IC50 [1, 6]: > 50 µM |
| 0.5 µg/mL (≈ 0.487 µM) | 0.5 µg/mL (≈ 0.487 µM) | 0.5 µg/mL (≈ 0.487 µM) | C[C@@H]1[C@H](O)[C@@H](C)/C=C/C=C/C=C/C=C/C=C/C=C/C=C/[C@H](O[C@@H]2O[C@H](C)[C@@H](O)[C@H](N)[C@@H]2O)C[C@@H]2O[C@](O)(C[C@@H](O)C[C@@H](O)[C@H](O)CC[C@@H](O)C[C@@H](O)CC(=O)O[C@H]1C)C[C@H](O)[C@H]2NC(=O)NC[C@@H](O)C(=O)O [I-311] | IC50 [1, 6]: > 50 µM |
| 0.5 µg/mL (≈ 0.516 µM) | 0.5 µg/mL (≈ 0.516 µM) | 0.25 µg/mL (≈ 0.258 µM) | C[C@@H]1[C@H](O)[C@@H](C)/C=C/C=C/C=C/C=C/C=C/C=C/C=C/[C@H](O[C@@H]2O[C@H](C)[C@@H](O)[C@H](N)[C@@H]2O)C[C@@H]2O[C@](O)(C[C@@H](O)C[C@@H](O)[C@H](O)CC[C@@H](O)C[C@@H](O)CC(=O)O[C@H]1C)C[C@H](O)[C@H]2NC(=O)N(C)O [I-266] |  |

Reference: patent publication US10696707B2, “Polyene macrolide derivative” (Shionogi & Co., Ltd., priority 2014, dated 2020)
